From patent publication US8003658B2, “Quinazoline derivatives for inhibiting cancer cell growth and method for the preparation thereof” (Hanmi Holdings Co., Ltd., priority 2004, dated 2011)
pIC50: −log10 of the molar value. Like-named read-outs stand apart in the source and are kept apart here.

Key:
SK-Br3 (ATCC: HTB-30) = assay: Test of cancer cell growth inhibition (SRB), SK-Br3; details: read-out: IC50 SK-Br-3
SW-620 (ATCC: CCL-227) = assay: Test of cancer cell growth inhibition (SRB), SW-620; details: read-out: IC50 SW-620
A431 (ATCC: CRL-1555) = assay: Test of cancer cell growth inhibition (SRB), A431; details: read-out: IC50 A431
[1] = Erb-B2 overexpressed SK-Br3, 72 hours, SRB
[2] = SW-620 not having overexpressed EGFR and Erb-B2, 72 hours, SRB
[3] = EGFR overexpressed A431, 72 hours, SRB

Compound | pIC50 (SK-Br3 (ATCC: HTB-30); [1]) | pIC50 (SW-620 (ATCC: CCL-227); [2]) | pIC50 (A431 (ATCC: CRL-1555); [3]) | pIC50 (SK-Br3 (ATCC: HTB-30); Homo sapiens, SK-BR-3, 72 h) | pIC50 (SW-620 (ATCC: CCL-227); Homo sapiens, SW-620, 72 h) | pIC50 (A431 (ATCC: CRL-1555); Homo sapiens, A-431, 72 h)
CC(C)=CC(=O)NCCC(=O)Nc1ccc2ncnc(Nc3ccc(OCc4cccc(F)c4)c(Cl)c3)c2c1 [Example 29, 3-methyl-but-2-enonylic acid (2-{4-[3-chloro-4-(3-fluoro-benzyloxy)-phenylamino]-quinazolin-6-ylcarbamoyl}-ethyl)-amide] | 7.27 | < 5.00 | 6.51 | – | – | –
O=C(CCNC(=O)C1=CCCC1)Nc1ccc2ncnc(Nc3ccc(OCc4cccc(F)c4)c(Cl)c3)c2c1 [Example 25, cyclopent-1-en carboxylic acid (2-{4-[3-chloro-4-(3-fluoro-benzyloxy)-phenylamino]-quinazolin-6-ylcarbamoyl}-ethyl)-amide] | – | – | – | 6.88 | < 5.00 | 6.86
CC=CC=CC(=O)NCCC(=O)Nc1ccc2ncnc(Nc3ccc(OCc4cccc(F)c4)c(Cl)c3)c2c1 [Example 24, hexa-2,4-dienonylic acid (2-{4-[3-chloro-4-(3-fluoro-benzyloxy)-phenylamino]-quinazolin-6-ylcarbamoyl}-ethyl)-amide] | 6.98 | < 5.00 | 6.63 | – | – | –
O=C(CCl)NCCCC(=O)Nc1ccc2ncnc(Nc3ccc(OCc4cccc(F)c4)c(Cl)c3)c2c1 [Example 102, 4-(2-chloro-acetylamino)-N-{4-[3-chloro-4-(3-fluoro-benzyloxy)-phenylamino]-quinazolin-6-yl}-butyramide] | – | – | – | 7.10 | < 5.00 | 6.46
O=C(CCCNC(=O)c1ccoc1)Nc1ccc2ncnc(Nc3ccc(OCc4cccc(F)c4)c(Cl)c3)c2c1 [Example 94, furan-3-carboxylic acid (3-{4-[3-chloro-4-(3-fluoro-benzyloxy)-phenylamino]-quinazolin-6-ylcarbamoyl}-propyl)-amide] | – | – | – | 7.15 | – | 6.61
CS(=O)(=O)CC(=O)NCCCC(=O)Nc1ccc2ncnc(Nc3ccc(OCc4cccc(F)c4)c(Cl)c3)c2c1 [Example 88, N-{4-[3-chloro-4-(3-fluoro-benzyloxy)-phenylamino]-quinazolin-6-yl}-4-(2-methanesulfonyl-acetylamino)-butyramide] | – | – | – | 7.21 | – | 6.14
(2S)-2-acryloylamino-N-{4-[3-chloro-4-(3-fluoro-benzyloxy)-phenylamino]-7-(2-methoxyethoxy)-quinazolin-6-yl}-4-methylsulfanyl-butyramide [Example 222] | 8.05 | – | 7.60 | – | – | –
C=CC=CCn1ncc2cc(Nc3ncnc4cc(OC)c(NC(=O)[C@@H]5CCCN5C(=O)C=C)cc34)ccc21 [Example 193, (2S)-1-acryloyl-pyrrolidine-2-carboxylic acid [7-methoxy-4-(1-penta-2,4-dienyl-1H-indazol-5-ylamino)-quinazolin-6-yl]-amide] | – | – | – | 7.66 | – | 7.12
C=CC(=O)N(C)[C@@H](C)C(=O)Nc1cc2c(Nc3ccc(OCc4ccccn4)c(Cl)c3)ncnc2cc1OC [Example 191, (1S)—N-(1-{4-[3-chloro-4-(pyridin-2-ylmethoxy)-phenylamino]-7-methoxy-quinazolin-6-ylcarbamoyl}ethyl)-N-methyl-acrylamide] | – | – | – | 8.52 | – | 7.25
C=CC(=O)NCCC(=O)N(CCCN(C)C)c1ccc2ncnc(Nc3ccc(OCc4cccc(F)c4)c(Cl)c3)c2c1 [Example 141-4, N-{2-[{4-[3-chloro-4-(3-fluoro-benzyloxy)-phenylamino]-quinazolin-6-yl}-(3-dimethylamino-propyl)-carbamoyl]-ethyl}-acrylamide] | – | – | – | 6.09 | – | 5.88
COCC(=O)NCCC(=O)Nc1ccc2ncnc(Nc3ccc(OCc4ccccn4)c(Cl)c3)c2c1 [Example 129-2, N-{4-[3-chloro-4-(pyridin-2-ylmethoxy)-phenylamino]-quinazolin-6-yl}-3-(2-methoxy-acetylamino)-propionamide] | – | – | – | 6.46 | – | 6.31
C=CC(=O)N1CCC[C@H]1C(=O)Nc1cc2c(Nc3ccc(OCc4ccccn4)c(Cl)c3)ncnc2cc1N(C)C [Example 184, (2S)-1-acryloyl-pyrrolidine-2-carboxylic acid {4-[3-chloro-4-(pyridin-2-ylmethoxy)-phenylamino]-7-dimethylamino-quinazolin-6-yl}-amide] | – | – | – | 6.94 | – | 5.85
C=CC(=O)N1CCC[C@H]1C(=O)Nc1cc2c(Nc3ccc(OCc4ccccn4)c(C)c3)ncnc2cc1OC [Example 168, (2S)-1-acryloyl-pyrrolidine-2-carboxylic acid {7-methoxy-4-[3-methyl-4-(pyridin-2-ylmethoxy)-phenylamino]-quinazolin-6-yl}-amide] | – | – | – | 8.22 | – | 7.17
O=C(CCNC(=O)c1ccoc1)Nc1ccc2ncnc(Nc3ccc(OCc4cccc(F)c4)c(Cl)c3)c2c1 [Example 33, furan-3-carboxylic acid (2-{4-[3-chloro-4-(3-fluoro-benzyloxy)-phenylamino]-quinazolin-6-ylcarbamoyl}-ethyl)-amide] | – | – | – | 6.88 | – | 6.46
C=CC(=O)N1CCC(C(=O)Nc2ccc3ncnc(Nc4ccc(OCc5ccccn5)c(Cl)c4)c3c2)CC1 [Example 156, 1-acryloyl-piperidine-4-carboxylic acid {4-[3-chloro-4-(pyridin-2-ylmethoxy)-phenylamino]-quinazolin-6-yl}-amide] | – | – | 6.29 | 7.72 | – | –
COCC(=O)N[C@@H](CCSC)C(=O)Nc1ccc2ncnc(Nc3ccc(OCc4cccc(F)c4)c(Cl)c3)c2c1 [Example 7-2, (2S)—N-{4-[3-chloro-4-(3-fluoro-benzyloxy)-phenylamino]-quinazolin-6-yl}-2-(2-methoxy-acetylamino)-4-methanesulfanyl-butyramide] | 6.58 | – | 6.13 | – | – | –
C=CC(=O)N1CCC[C@H]1C(=O)Nc1ccc2ncnc(Nc3ccc(F)c(Cl)c3)c2c1 [Example 159, (2S)-1-acryloyl-pyrrolidine-2-carboxylic acid [4-(3-chloro-4-fluoro-phenylamino)-quinazolin-6-yl]-amide] | – | – | – | 6.65 | – | 6.34
C=CC(=O)N(CC)[C@@H](C)C(=O)Nc1cc2c(Nc3ccc(OCc4ccccn4)c(Cl)c3)ncnc2cc1OC [Example 202, N-((1S)-1-{4-[3-chloro-4-(pyridin-2-ylmethoxy)-phenylamino]-7-methoxy-quinazolin-6-ylcarbamoyl}-ethyl)-N-ethyl-acrylamide] | – | – | – | 8.22 | – | 6.98
CSCC(=O)NCCCC(=O)Nc1ccc2ncnc(Nc3ccc(OCc4cccc(F)c4)c(Cl)c3)c2c1 [Example 137, N-{4-[3-chloro-4-(3-fluoro-benzyloxy)phenylamino]-quinazolin-6-yl}-4-(2-methanesulfanyl-acetylamino)-butyramide] | 7.36 | – | 7.00 | – | – | –
C[S+]([O-])CC(=O)NCCC(=O)Nc1ccc2ncnc(Nc3ccc(OCc4cccc(F)c4)c(Cl)c3)c2c1 (stereo not shown) [Example 118, N-{4-[3-chloro-4-(3-fluoro-benzyloxy)-phenylamino]-quinazolin-6-yl}-3-(2-methanesulfinyl-acetylamino)-propionamide] | – | – | – | 6.79 | – | 6.13
C=CC(=O)N[C@@H](C)CC(=O)Nc1cc2c(Nc3ccc(OCc4ccccn4)c(Cl)c3)ncnc2cc1OC [Example 212, (3S)-3-acryloylamino-N-{4-[3-chloro-4-(pyridin-2-ylmethoxy)-phenylamino]-7-methoxy-quinazolin-6-yl}-butyramide] | – | – | – | 8.05 | – | 7.01
C[S+]([O-])CC(=O)NCCCC(=O)Nc1ccc2ncnc(Nc3ccc(OCc4cccc(F)c4)c(Cl)c3)c2c1 (stereo not shown) [Example 138, N-{4-[3-chloro-4-(3-fluoro-benzyloxy)-phenylamino]-quinazolin-6-yl}-4-(2-methanesulfinyl-acetylamino)-butyramide] | – | – | – | 7.27 | – | 6.99
C=CC(=O)N1CCC[C@H]1C(=O)Nc1cc2c(Nc3ccc(OCc4cccnc4)c(Cl)c3)ncnc2cc1OCCCN1CCOCC1 [Example 209, (2S)-1-acryloyl-pyrrolidine-2-carboxylic acid {4-[3-chloro-4-(pyridin-3-ylmethoxy)-phenylamino]-7-(3-morpholin-4-yl-propoxy)-quinazolin-6-yl}-amide] | – | – | – | 8.52 | – | 7.36
C=CC(=O)N1C[C@H](OC)C[C@H]1C(=O)Nc1ccc2ncnc(Nc3ccc(OCc4ccccn4)c(Cl)c3)c2c1 [Example 161, (2S,4R)-1-acryloyl-4-methoxy-pyrrolidine-2-carboxylic acid {4-[3-chloro-4-(pyridin-2-ylmethoxy)-phenylamino]-quinazolin-6-yl}-amide] | – | – | – | 7.72 | – | 6.17
CC(C)(C)OC(=O)NCCC(=O)Nc1ccc2ncnc(Nc3ccc(OCc4cccc(F)c4)c(Cl)c3)c2c1 [Example 19, (2-{4-[3-chloro-4-(3-fluoro-benzyloxy)-phenylamino]-quinazolin-6-ylcarbamoyl}-ethyl)-carbamic acid t-butylester] | – | – | – | 6.37 | – | 6.47
C=CC(=O)N1CCC[C@H]1C(=O)Nc1ccc2ncnc(Nc3ccc(OCc4cccnc4)c(Cl)c3)c2c1 [Example 152, (2S)-1-acryloyl-pyrrolidine-2-carboxylic acid {4-[3-chloro-4-(pyridin-3-ylmethoxy)-phenylamino]-quinazolin-6-yl}-amide] | – | – | – | 8.40 | – | 6.78
O=C(CCNC(=O)c1cn[nH]c1)Nc1ccc2ncnc(Nc3ccc(OCc4cccc(F)c4)c(Cl)c3)c2c1 [Example 34, 1H-pyrazol-4-carboxylic acid (2-{4-[3-chloro-4-(3-fluoro-benzyloxy)-phenylamino]-quinazolin-6-ylcarbamoyl}-ethyl)-amide] | – | – | – | 6.85 | – | 6.05
